Experimental findings from patent US20250375440A1, “COMPOSITION AND METHOD OF TREATING CANCER ASSOCIATED WITH EGFR MUTATION” (BEYONDSPRING PHARMACEUTICALS, INC., priority 2018, published 2025) are described below.

This test deals with NCI-H1975 Human Lung Cancer Xenograft. Description: subcutaneous NCI-H1975 Human Lung Cancer Xenograft Model in Balb/c Nude Mice, tumor size. It is filed as in vivo, Mus Musculus (Balb/c nude mice). The conditions noted are these: single agent. On the procedure: The therapeutic efficacy of Osimertinib and Plinabulin were tested in vivo. The two drugs were tested as a single agent and in combination in the treatment of subcutaneous NCI-H1975 Human Lung Cancer Xenograft Model in Balb/c Nude Mice. The administration of the test articles and the animal numbers in each study group were shown in the following experimental design table 1. [table] Study endpoints: The major endpoints of the study include the followings: Tumor growth inhibition (TGI): TGI % was an indication of antitumor effectiveness, and expressed as: TGI (%)=100×(1-T/C). T and C were the mean tumor volume (or weight) of the treated and control groups, respectively, on a given day. The test uses 6-8 weeks female mice (species: Mus Musculus, Strain: Balb/c nude). The average body weight of the mice was 18-22 g. A total of 84 mice (60 plus 40% spare) were used. The animals were housed in individual ventilated cages (up to 5 mice per cage) under the following conditions: Temperature: 20˜26° C.; Humidity: 40-70%; Light cycle: 7:00 am-19:00 pm light and 19:00 pm-7:00 am (next day) darkness; Polysulfone IVC cage: size of 325 mm×210 mm×180 mm; Bedding material: corn cob; Diet: Mouse diet, Co60 irradiation sterilized dry granule food. Animals have free access during the entire study period; Water: Reverse osmosis (RO) water, autoclaved before using. […] The cells growing in an exponential growth phase were harvested and counted for tumor inoculation. […] Group assignment: Before grouping and treatment, all animals were weighed and the tumor volumes were measured using a caliper. […] During routine monitoring, the animals were checked for any effects of tumor growth and treatments on normal behavior such as mobility, visual estimation of food and water consumption, body weight gain/loss (body weights were measured twice per week), eye/hair matting and any other abnormal effect. […]
For orientation: A xenograft is tissue or cells of one species grown in another, often human tumour cells in immunodeficient mice.

Turning to `CC(C)(C)c1[nH]cnc1/C=c1\[nH]c(=O)/c(=C/c2ccccc2)[nH]c1=O` [plinabulin, (3Z,6Z)-3-Benzylidene-6-{[5-(2-methyl-2-propanyl)-1H-imidazol-4-yl]methylene}-2,5-piperazinedione], the “tumor size change after tumor inoculation” value was “tumor size increases” (Group 3, plinabulin 7.5 mg/kg i.p. BIW 2 wks) and “tumor size increases” (Group 4, plinabulin 2.5 mg/kg i.p. BIW 2 wks).

Consider `C=CC(=O)Nc1cc(Nc2nccc(-c3cn(C)c4ccccc34)n2)c(OC)cc1N(C)CCN(C)C` [osimertinib, reference compound], for which the “tumor size change after tumor inoculation” value (Group 2, osimertinib 2.5 mg/kg p.o. QD x 5/wk) was “control over the tumor size and slight increase in tumor size after the animals were tested for 15 days”.
